# Assay results as given in patent US20080090734A1, “DRUG SCREENING AND TARGET IDENTIFICATION USING SPR IMAGING OF TARGET PROTEIN ARRAYS” (The Trustees of California State University, priority 2006, published 2008).
# Test system: A. baumannii clinical isolate LAC 17
# Assay: Antibiotic susceptibility profile
# Type: cell-based, Acinetobacter baumannii
# Parameters: key: Resistance; Intermediate; Susceptible
# Settings: not given
# Text: (§1) We obtained over thirty clinical isolates of A. baumannii from nosocomial infections in New York City and Los Angeles. […] Only antibiotics with breakpoints for A. baumannii were used. […] Isolates LA 01 to 20 were acquired from Los Angels County while NY-A to NY-H were obtained from New York City.
# (§2) Antibiotic susceptibility profiles of clinical isolates of A. baumannii and reference strains. R, I, and S denote Resistance, Intermediate and Susceptible, respectively. Genetic Profiling of Clinical Isolates of A. baumannii
row,Structure (SMILES),Antibiotic susceptibility
1,"C[C@H]1c2cccc(O)c2C(=O)C2=C(O)[C@]3(O)C(=O)C(C(N)=O)=C(O)[C@@H](N(C)C)[C@@H]3[C@@H](O)[C@@H]21 [DOX, Doxycycline]",S

# Test system: A. baumannii clinical isolate LAC 18
# Assay: Antibiotic susceptibility profile
# Type: cell-based, Acinetobacter baumannii
# Parameters: key: Resistance; Intermediate; Susceptible
# Settings: not given
# Text: as §1, §2
row,Structure (SMILES),Antibiotic susceptibility
1,"C[C@H]1c2cccc(O)c2C(=O)C2=C(O)[C@]3(O)C(=O)C(C(N)=O)=C(O)[C@@H](N(C)C)[C@@H]3[C@@H](O)[C@@H]21 [DOX, Doxycycline]",S

# Test system: A. baumannii clinical isolate LAC 19
# Assay: Antibiotic susceptibility profile
# Type: cell-based, Acinetobacter baumannii
# Parameters: key: Resistance; Intermediate; Susceptible
# Settings: not given
# Text: as §1, §2
row,Structure (SMILES),Antibiotic susceptibility
1,"C[C@H]1c2cccc(O)c2C(=O)C2=C(O)[C@]3(O)C(=O)C(C(N)=O)=C(O)[C@@H](N(C)C)[C@@H]3[C@@H](O)[C@@H]21 [DOX, Doxycycline]",S

# Test system: A. baumannii clinical isolate LAC 20
# Assay: Antibiotic susceptibility profile
# Type: cell-based, Acinetobacter baumannii
# Parameters: key: Resistance; Intermediate; Susceptible
# Settings: not given
# Text: as §1, §2
row,Structure (SMILES),Antibiotic susceptibility
1,"C[C@H]1c2cccc(O)c2C(=O)C2=C(O)[C@]3(O)C(=O)C(C(N)=O)=C(O)[C@@H](N(C)C)[C@@H]3[C@@H](O)[C@@H]21 [DOX, Doxycycline]",S

# Test system: A. baumannii clinical isolate NY A
# Assay: Antibiotic susceptibility profile
# Type: cell-based, Acinetobacter baumannii
# Parameters: key: Resistance; Intermediate; Susceptible
# Settings: not given
# Text: as §1, §2
row,Structure (SMILES),Antibiotic susceptibility
1,"C[C@H]1c2cccc(O)c2C(=O)C2=C(O)[C@]3(O)C(=O)C(C(N)=O)=C(O)[C@@H](N(C)C)[C@@H]3[C@@H](O)[C@@H]21 [DOX, Doxycycline]",S

# Test system: A. baumannii clinical isolate NY B
# Assay: Antibiotic susceptibility profile
# Type: cell-based, Acinetobacter baumannii
# Parameters: key: Resistance; Intermediate; Susceptible
# Settings: not given
# Text: as §1, §2
row,Structure (SMILES),Antibiotic susceptibility
1,"C[C@H]1c2cccc(O)c2C(=O)C2=C(O)[C@]3(O)C(=O)C(C(N)=O)=C(O)[C@@H](N(C)C)[C@@H]3[C@@H](O)[C@@H]21 [DOX, Doxycycline]",R

# Test system: A. baumannii clinical isolate NY C
# Assay: Antibiotic susceptibility profile
# Type: cell-based, Acinetobacter baumannii
# Parameters: key: Resistance; Intermediate; Susceptible
# Settings: not given
# Text: as §1, §2
row,Structure (SMILES),Antibiotic susceptibility
1,"C[C@H]1c2cccc(O)c2C(=O)C2=C(O)[C@]3(O)C(=O)C(C(N)=O)=C(O)[C@@H](N(C)C)[C@@H]3[C@@H](O)[C@@H]21 [DOX, Doxycycline]",S

# Test system: A. baumannii clinical isolate NY D
# Assay: Antibiotic susceptibility profile
# Type: cell-based, Acinetobacter baumannii
# Parameters: key: Resistance; Intermediate; Susceptible
# Settings: not given
# Text: as §1, §2
row,Structure (SMILES),Antibiotic susceptibility
1,"C[C@H]1c2cccc(O)c2C(=O)C2=C(O)[C@]3(O)C(=O)C(C(N)=O)=C(O)[C@@H](N(C)C)[C@@H]3[C@@H](O)[C@@H]21 [DOX, Doxycycline]",S

# Test system: A. baumannii clinical isolate NY E
# Assay: Antibiotic susceptibility profile
# Type: cell-based, Acinetobacter baumannii
# Parameters: key: Resistance; Intermediate; Susceptible
# Settings: not given
# Text: as §1, §2
row,Structure (SMILES),Antibiotic susceptibility
1,"C[C@H]1c2cccc(O)c2C(=O)C2=C(O)[C@]3(O)C(=O)C(C(N)=O)=C(O)[C@@H](N(C)C)[C@@H]3[C@@H](O)[C@@H]21 [DOX, Doxycycline]",R

# Test system: A. baumannii clinical isolate NY F
# Assay: Antibiotic susceptibility profile
# Type: cell-based, Acinetobacter baumannii
# Parameters: key: Resistance; Intermediate; Susceptible
# Settings: not given
# Text: as §1, §2
row,Structure (SMILES),Antibiotic susceptibility
1,"C[C@H]1c2cccc(O)c2C(=O)C2=C(O)[C@]3(O)C(=O)C(C(N)=O)=C(O)[C@@H](N(C)C)[C@@H]3[C@@H](O)[C@@H]21 [DOX, Doxycycline]",S

# Test system: A. baumannii clinical isolate NY G
# Assay: Antibiotic susceptibility profile
# Type: cell-based, Acinetobacter baumannii
# Parameters: key: Resistance; Intermediate; Susceptible
# Settings: not given
# Text: as §1, §2
row,Structure (SMILES),Antibiotic susceptibility
1,"C[C@H]1c2cccc(O)c2C(=O)C2=C(O)[C@]3(O)C(=O)C(C(N)=O)=C(O)[C@@H](N(C)C)[C@@H]3[C@@H](O)[C@@H]21 [DOX, Doxycycline]",R

# Test system: A. baumannii clinical isolate NY H
# Assay: Antibiotic susceptibility profile
# Type: cell-based, Acinetobacter baumannii
# Parameters: key: Resistance; Intermediate; Susceptible
# Settings: not given
# Text: as §1, §2
row,Structure (SMILES),Antibiotic susceptibility
1,"C[C@H]1c2cccc(O)c2C(=O)C2=C(O)[C@]3(O)C(=O)C(C(N)=O)=C(O)[C@@H](N(C)C)[C@@H]3[C@@H](O)[C@@H]21 [DOX, Doxycycline]",S

# Test system: A. baumannii reference strain 15839
# Assay: Antibiotic susceptibility profile
# Type: cell-based, Acinetobacter baumannii
# Parameters: key: Resistance; Intermediate; Susceptible
# Settings: strain 15839 (ATCC)
# Text: as §1, §2
row,Structure (SMILES),Antibiotic susceptibility
1,"C[C@H]1c2cccc(O)c2C(=O)C2=C(O)[C@]3(O)C(=O)C(C(N)=O)=C(O)[C@@H](N(C)C)[C@@H]3[C@@H](O)[C@@H]21 [DOX, Doxycycline]",R

# Test system: A. baumannii reference strain 17978
# Assay: Antibiotic susceptibility profile
# Type: cell-based, Acinetobacter baumannii
# Parameters: key: Resistance; Intermediate; Susceptible
# Settings: strain 17978 (ATCC)
# Text: as §1, §2
row,Structure (SMILES),Antibiotic susceptibility
1,"C[C@H]1c2cccc(O)c2C(=O)C2=C(O)[C@]3(O)C(=O)C(C(N)=O)=C(O)[C@@H](N(C)C)[C@@H]3[C@@H](O)[C@@H]21 [DOX, Doxycycline]",S

# Test system: A. baumannii reference strain 19606
# Assay: Antibiotic susceptibility profile
# Type: cell-based, Acinetobacter baumannii
# Parameters: key: Resistance; Intermediate; Susceptible
# Settings: strain 19606 (ATCC)
# Text: as §1, §2
row,Structure (SMILES),Antibiotic susceptibility
1,"C[C@H]1c2cccc(O)c2C(=O)C2=C(O)[C@]3(O)C(=O)C(C(N)=O)=C(O)[C@@H](N(C)C)[C@@H]3[C@@H](O)[C@@H]21 [DOX, Doxycycline]",S

# Test system: A. baumannii reference strain AYE
# Assay: Antibiotic susceptibility profile
# Type: cell-based, Acinetobacter baumannii
# Parameters: key: Resistance; Intermediate; Susceptible
# Settings: not given
# Text: as §1, §2
row,Structure (SMILES),Antibiotic susceptibility
1,"C[C@H]1c2cccc(O)c2C(=O)C2=C(O)[C@]3(O)C(=O)C(C(N)=O)=C(O)[C@@H](N(C)C)[C@@H]3[C@@H](O)[C@@H]21 [DOX, Doxycycline]",S

# Test system: A. baumannii reference strain SDF
# Assay: Antibiotic susceptibility profile
# Type: cell-based, Acinetobacter baumannii
# Parameters: key: Resistance; Intermediate; Susceptible
# Settings: not given
# Text: as §1, §2
row,Structure (SMILES),Antibiotic susceptibility
1,"C[C@H]1c2cccc(O)c2C(=O)C2=C(O)[C@]3(O)C(=O)C(C(N)=O)=C(O)[C@@H](N(C)C)[C@@H]3[C@@H](O)[C@@H]21 [DOX, Doxycycline]",S
